Experimental data reported in patent US12459908B2, “Alpha, beta unsaturated methacrylic esters with anti-inflammatory properties” (Sitryx Therapeutics Limited, priority 2020, dated 2025).

Tests used:
[1] = Hepatocyte stability assay, human cryopreserved hepatocytes; assay type: in vitro ADME; conditions: cryopreserved hepatocytes, Human hepatocytes, 10 μM, 60 min, read-out: T½
Excerpt: (§1) Biological Example 3—Hepatocyte Stability Assay
(§2) Defrosted cryo-preserved hepatocytes (viability >70%) were used to determine the metabolic stability of a compound via calculation of intrinsic clearance (CIint; a measure of the removal of a compound from the liver in the absence of blood flow and cell binding). Clearance data are particularly important for in vitro work as they can be used in combination with in vivo data to predict the half-life and oral bioavailability of a drug.
(§3) The metabolic stability in hepatocytes assay involves a time-dependent reaction using both positive and negative controls. The cells were pre-incubated at 37° C. and spiked with test compound (and positive control); samples taken at pre-determined time intervals were analysed to monitor the change in concentration of the initial drug compound over 60 minutes. A buffer incubation reaction (with no hepatocytes present) acted as a negative control and two cocktail solutions, containing compounds with known high and low clearance values (verapamil/7-hydroxycoumarin and propranolol/diltiazem), acted as positive controls. • 1. The assay was run with a cell concentration of 0.5×10^6 cells/mL in Leibovitz buffer. • 2. All compounds and controls were run in duplicate. • 3. Compound concentration was 10 μM. • 4. All compounds and controls were incubated with both cells and buffer to show turnover was due to hepatic metabolism. • 5. All wells on the incubation plate had 326.7 μL of either cells or buffer added. • 6. Prior to assay, cell and buffer-only incubation plates were preincubated for 10 mins at 37° C. • 7. The assay was initiated by adding compounds, 3.3 μL of 1 mM in 10% DMSO-90% Buffer; final DMSO concentration is 0.1%. • 8. Samples were taken at regular timepoints (0, 5, 10, 20, 40, 60 min) until 60 mins. • 9. Sample volume was 40 μL and was added to 160 μL of crash solvent (acetonitrile with internal standard) and stored on ice. • 10. At the end of the assay, the crash plates were centrifuged at 3500 rpm for 20 mins at 4° C. • 11. 80 μL of clear supernatant was removed and mixed with 80 μL of deionised water before being analysed by LC-MS/MS.
(§4) Raw LC-MS/MS data was exported to, and analysed in, Microsoft Excel for determination of intrinsic clearance. The percentage remaining of a compound was monitored using the peak area of the initial concentration as 100%. Intrinsic clearance and half-life values were calculated using a graph of the natural log of percentage remaining versus the time of reaction in minutes. Half-life (min) and intrinsic clearance (CIint in μL min^−1 10^−6 cells) values were calculated using the gradient of the graph (the elimination rate constant, k) and Equations 1 and 2.

[2] = test system: cryo-preserved hepatocytes; test: as above; assay type: in vitro ADME
Excerpt: as §1, §2, §3, §4

IL-1β = test: THP-1 AlphaLISA IL-1β cytokine inhibition assay (differentiated THP-1 cells); assay type: cell-based; conditions: LPS 24 hr then Nigericin 1 hour
Procedure: Biological Example 1—THP-1 AlphaLISA IL-1β
Measuring Inhibitory Effects on IL-1, Cytokine Output from THP-1s
(§5) The cytokine inhibition profiles of compounds of formula (I) were determined in a differentiated THP-1 cell assay. All assays were performed in RPMI-1640 growth medium (Gibco), supplemented with 10% fetal bovine serum (FBS; Gibco), 1% penicillin-streptomycin and 1% sodium pyruvate unless specified otherwise. The IL-1p cytokine inhibition assay was run in a background of differentiated THP-1 cells as described below. All reagents described were from Sigma-Aldrich unless specified otherwise. Compounds were prepared as 10 mM DMSO stocks.
(§6) THP-1 cells were expanded as a suspension up to 80% confluence in appropriate growth medium. Cells were harvested, suspended, and treated with an appropriate concentration of phorbol 12-myristate 13-acetate (PMA) over a 72 hr period (37° C./5% CO2).
(§7) Following 72 hrs of THP-1 cell incubation, cellular medium was removed and replaced with fresh growth media containing 1% of FBS. Working concentrations of compounds were prepared separately in 10% FBS treated growth medium and pre-incubated with the cells for 30 minutes (37° C./5% CO2). Following the 30 minute compound pre-incubation, THP-1s were treated with an appropriate concentration of LPS and the cells were subsequently incubated for a 24 hr period (37° C./5% CO2). An appropriate final concentration of Nigericin was then dispensed into the THP-1 plates and incubated for 1 hour (37° C./5% CO2) before THP-1 supernatants were harvested and collected in separate polypropylene 96-well holding plates.
(§8) Reagents from an IL-1β and IL-6 commercial kit (Perkin Elmer) were prepared and run according to the manufacturer's instructions. Subsequently, fluorescence signal detection in a microplate reader was measured (EnVision® Multilabel Reader, Perkin Elmer).
(§9) Percentage inhibition was calculated per cytokine by normalising the sample data to the high and low controls used within each plate (+/−LPS respectively). Percentage inhibition was then plotted against compound concentration and the 50% inhibitory concentration (IC50) was determined from the resultant concentration-response curve.

[3] = Hepatocyte stability assay, mouse cryopreserved hepatocytes; assay type: in vitro ADME; conditions: cryopreserved hepatocytes, Mouse hepatocytes, 10 μM, 60 min, read-out: T½
Excerpt: as §1, §2, §3, §4

[4] = test system: cryo-preserved hepatocytes; test: as above; assay type: in vitro ADME
Excerpt: as §1, §2, §3, §4

NRF2 = NRF2 activation assay (DiscoverX PathHunter NRF2 translocation kit, U2OS cells); assay type: cell-based; conditions: 6 hours
Procedure: Biological Example 2—NRF2 Activation Assay
Measuring Compound Activation Effects on the Anti-Inflammatory Transcription Factor NRF2 in DiscoverX PathHunter NRF2 Translocation Kit
Potency and efficacy of compounds of formula (I) against the target of interest to activate NRF2 (nuclear factor erythroid 2-related factor 2) were determined using the PathHunter NRF2 translocation kit (DiscoverX). The NRF2 translocation assay was run using an engineered recombinant cell line, utilising enzyme fragment complementation to determine activation of the Keap1-NRF2 protein complex and subsequent translocation of NRF2 into the nucleus. Enzyme activity was quantified using a chemiluminescent substrate consumed following the formation of a functional enzyme upon PK-tagged NRF2 translocation into the nucleus.
Additionally, a defined concentration of DMF was used as the ‘High’ control to normalise test compound activation responses to.
U2OS PathHunter eXpress cells were thawed from frozen prior to plating. Following plating, U2OS cells were incubated for 24 hrs (37° C./5% CO2) in commercial kit provided cell medium.
Following 24 hrs of incubation, plated U2OS cells were directly treated with an appropriate final concentration of compound. […]
Following compound treatment, the U2OS plates were incubated for a further 6 hours (37° C./5% CO2) before detection reagent from the PathHunter NRF2 commercial kit was prepared and added to test plates according to the manufacturer's instructions. Subsequently, the luminescence signal detection was measured in a microplate reader (PHERAstar®, BMG Labtech).
Percentage activation was calculated by normalising the sample data to the high and low controls used within each plate (+/−DMF). Percentage activation/response was then plotted against compound concentration and the 50% activation concentration ([…]) was determined from the plotted concentration-response curve.

IL-6 = test: THP-1 AlphaLISA IL-6 cytokine inhibition assay (differentiated THP-1 cells); assay type: cell-based; conditions: LPS 24 hr then Nigericin 1 hour
Procedure: as §5, §6, §7, §8, §9

[5] = Human hepatocytes, 10 μM, 60 min, numeric values
[6] = Mouse hepatocytes, 10 μM, 60 min, numeric values
[7] = compared to 4-octyl itaconate, ethyl 2-(2-chlorobenzyl)acrylate and 2-(2-chlorobenzyl)acrylic acid
[8] = Mouse hepatocytes, 10 μM, 60 min, class symbols
[9] = Homo sapiens, normalised to DMF high control, class symbols

half-life at 10 μM ([1]; class symbols) [min] | IC50 (IL-1β; Homo sapiens, class symbols) [µM] | half-life at 10 μM ([3]; class symbols) [min] | Clint [4, 8] | EC50 (NRF2; Homo sapiens, class symbols) [µM] | IC50 (IL-6; Homo sapiens, class symbols) [µM] | Structure (SMILES) | Emax (NRF2; [9]) [%] | further results
< 5 | < 5 | ≤ 4 | + (+ means ≥351) | < 5 | < 5 | C=C(Cc1nc(Cc2ccc(CCCC)cc2)no1)C(=O)O[C@@H](CC(=O)O)C(F)(F)F [Example 10, (S)-3-((2-((3-(4-butylbenzyl)-1,2,4-oxadiazol-5-yl)methyl)acryloyl)oxy)-4,4,4-trifluorobutanoic acid] | 135 to 165 | 
5 to 59 | < 5 | ≤ 4 | + (+ means ≥351) | < 5 | < 5 | C=C(Cc1nc(Cc2ccc(CCCC)cc2)no1)C(=O)OCCc1nnn[nH]1 [Example 14, 2-(1H-tetrazol-5-yl)ethyl 2-((3-(4-butylbenzyl)-1,2,4-oxadiazol-5-yl)methyl)acrylate] | 135 to 165 | 
5 to 59 | < 5 | ≤ 4 | + (+ means ≥351) | < 5 | < 5 | C=C(Cc1nc(C2(c3ccc(C(F)(F)F)cc3)CC2)no1)C(=O)O[C@@H](CC(=O)O)C(F)(F)F [Example 8, (S)-4,4,4-trifluoro-3-((2-((3-(1-(4-(trifluoromethyl)phenyl)cyclopropyl)-1,2,4-oxadiazol-5-yl)methyl)acryloyl)oxy)butanoic acid] | 135 to 165 | 
5 to 59 | < 5 | ≤ 4 | + (+ means ≥351) | < 5 | < 5 | C=C(Cc1nc(C2(c3ccc(C(F)(F)F)cc3)CC2)no1)C(=O)O[C@H](CC(=O)O)C(F)(F)F [Example 7, (R)-4,4,4-trifluoro-3-((2-((3-(1-(4-(trifluoromethyl)phenyl)cyclopropyl)-1,2,4-oxadiazol-5-yl)methyl)acryloyl)oxy)butanoic acid] | 3 to 100 | 
5 to 59 | < 5 | ≤ 4 | + (+ means ≥351) | < 5 | < 5 | C=C(Cc1nc(Cc2ccc(CCCC)cc2)no1)C(=O)OCC(=O)O [Example 13, 2-((2-((3-(4-butylbenzyl)-1,2,4-oxadiazol-5-yl)methyl)acryloyl)oxy)acetic acid] | 166 to 250 | 

Second part, the molecule before the results:

Structure (SMILES) | half-life at 10 μM ([1]; class symbols) [min] | IC50 (IL-1β; Homo sapiens, class symbols) [µM] | half-life at 10 μM ([3]; class symbols) [min] | Clint [4, 8] | EC50 (NRF2; Homo sapiens, class symbols) [µM] | IC50 (IL-6; Homo sapiens, class symbols) [µM] | Emax (NRF2; [9]) [%] | further results
C=C(Cc1ccccc1Cl)C(=O)OCC [ethyl 2-(2-chlorobenzyl)acrylate, reference compound] |  |  |  |  |  |  |  | half-life at 10 μM ([1]; numeric values): < 3 min; Clint [2, 5]: >460 μL min^−1 10^−6 cells; IC50 (IL-1β; Homo sapiens, numeric values): > 100 µM; half-life at 10 μM ([3]; numeric values): < 3 min; Clint [4, 6]: >460 μL min^−1 10^−6 cells
C=C(Cc1nc(Cc2ccc(Cl)cc2)no1)C(=O)OCC(=O)O [Example 3, 2-((2-((3-(4-chlorobenzyl)-1,2,4-oxadiazol-5-yl)methyl)acryloyl)oxy)acetic acid] | > 100 | 11 to 20 | > 11 | +++ (For Clint (μL min^−1 10^−6 cells; mouse), +++ means <95) | 11 to 21 |  | 135 to 165 | Stability in human hepatocytes compared to comparators [2, 7]: more stable; Stability in mouse hepatocytes compared to comparators [4, 7]: more stable
C=C(Cc1ccccc1Cl)C(=O)O [2-(2-chlorobenzyl)acrylic acid, reference compound] |  |  |  |  |  |  |  | half-life at 10 μM ([1]; numeric values): 59 min; Clint [2, 5]: 21 μL min^−1 10^−6 cells; IC50 (IL-1β; Homo sapiens, numeric values): > 100 µM; half-life at 10 μM ([3]; numeric values): 11 min; Clint [4, 6]: 95 μL min^−1 10^−6 cells; Emax (NRF2; Homo sapiens, normalised to DMF high control, numeric values): 2%; EC50 (NRF2; Homo sapiens, numeric values): > 100 µM
C=C(Cc1nc(CCCCCCCC)no1)C(=O)OCC(=O)O [Example 1, 2-((2-((3-octyl-1,2,4-oxadiazol-5-yl)methyl)acryloyl)oxy)acetic acid] | 5 to 59 | < 5 | ≤ 4 | + (+ means ≥351) | < 5 | < 5 | 135 to 165 | 
C=C(CC(=O)OCCCCCCCC)C(=O)O [4-octyl itaconate, reference compound] |  |  |  |  |  |  |  | Clint [2, 5]: 401 μL min^−1 10^−6 cells; T½ [2, 5]: 4 min; IC50 (IL-1β; numeric values): 33 µM; IC50 (IL-6; numeric values): 25 µM; Clint [4, 6]: 351 μL min^−1 10^−6 cells; T½ [4, 6]: 4 min; NRF2 activation Emax (NRF2; normalised to DMF high control, numeric values): 165%; EC50 (NRF2; numeric values): 22 µM
C=C(Cc1nc(CCCCCCCC)no1)C(=O)O[C@H](CC(=O)O)C(F)(F)F [Example 5, (R)-4,4,4-trifluoro-3-((2-((3-octyl-1,2,4-oxadiazol-5-yl)methyl)acryloyl)oxy)butanoic acid] | 5 to 59 | < 5 | ≤ 4 | + (+ means ≥351) | < 5 | < 5 | 135 to 165 | 
